The test system of this assay is 9His-cgLAAO1. Kind of assay: coupled peroxidase/o-dianisidine assay, Hanes-Woolf. In kind it is biochemical, Colletotrichum gloeosporioides. The settings on record: 50 mM TEA/HCl pH 7.0, 30 °C.
The Km is the substrate concentration at which the rate is half of its maximum. On to `CSCC[C@H](N)C(=O)O` [L-methionine], for which the Km turned out to be 1060 ± 500 µM. As for `NC(=O)CC[C@H](N)C(=O)O` [L-glutamine], the figure is 760 ± 100 µM; as for `CC(C)C[C@H](N)C(=O)O` [L-leucine], 1200 ± 200 µM; as for `N[C@@H](Cc1ccccc1)C(=O)O` [L-phenylalanine], 320 ± 30 µM. Then `COC(=O)[C@@H](N)CC(C)C` [L-leucine methyl ester], with 12900 ± 300 µM.

The values are drawn from PMC8364938 (MicrobiologyOpen, 2021).
